Results reported in paper PMC12412615, “Tailored SirReal-type inhibitors enhance SIRT2 inhibition through ligand stabilization and disruption of NAD^+ co-factor binding” (RSC Medicinal Chemistry, 2025).

Experiments:
SIRT2 [1] = biological target: T1, SIRT2 (Homo sapiens, UniProt Q8IXJ6); assay: Fluorescence thermal shift assay of SIRT2
T1 sequence (Q8IXJ6 1-389): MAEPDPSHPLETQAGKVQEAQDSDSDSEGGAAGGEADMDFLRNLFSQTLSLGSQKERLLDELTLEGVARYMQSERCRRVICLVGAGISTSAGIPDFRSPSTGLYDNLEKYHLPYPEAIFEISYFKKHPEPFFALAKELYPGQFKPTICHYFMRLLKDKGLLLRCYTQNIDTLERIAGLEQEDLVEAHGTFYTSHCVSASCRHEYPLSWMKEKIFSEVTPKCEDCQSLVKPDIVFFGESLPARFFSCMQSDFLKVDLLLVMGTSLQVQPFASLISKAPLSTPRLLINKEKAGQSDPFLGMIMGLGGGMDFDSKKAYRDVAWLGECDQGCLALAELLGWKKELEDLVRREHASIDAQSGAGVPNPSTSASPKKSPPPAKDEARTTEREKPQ
Description: The thermal stability of SIRT2 was determined in the presence of 10 μM and 30 μM inhibitor and in the presence and absence of 2.5 mM co-factor NAD^+.
All melting temperature shifts measured were referenced to the melting temperature of SIRT2 without inhibitor, also in the presence and absence of the co-factor.
Fluorescence thermal shift assays were performed in white 96-well plates (Hard-Shell PCR Plates, BioRad, USA) with a total volume of 20 μL per well and a final DMSO concentration of 5% (v/v), following a published protocol.[19,21] […] The compounds were prepared as 10 mM stock solutions in DMSO and diluted in the assay such that a final DMSO concentration of 5% (v/v) was achieved. If necessary, NAD^+ was added to a final concentration of 2.5 mM. […] Melting temperatures were determined using GraphPad Prism, following a published procedure.[52]

SIRT2 [2] = biological target: T1, SIRT2; assay: Fluorescence-based SIRT2 deacetylation inhibition assay (Reaction Biology Corporation); format: biochemical; set-up: purchased Reaction Biology Corporation (Malvern, USA), contract assay
Description: The determination of SIRT2 inhibitory activity was performed by Reaction Biology Corporation (Malvern, USA) with a fluorescence-based assay utilizing the fluorogenic peptide of p53 residues 379–382 (RHKK(Ac)-Fl). […]. […] […]. On the contrary, we observed a significant increase in potency by the introduction of halogens at the R^2 position (compounds 29–31), highlighting the importance of the position of the functional group modifications. […]. […] Additional factors such as the atomic radius and thus steric requirements of these halogens may also play a significant role in the increase in potency, where the smaller chlorine atom may experience less steric effects upon binding at the active site compared to the larger bromine and iodine atoms. […]. […] IC50 values against SIRT2 are given as mean with standard deviations (n = 3). Inhibition percentages at 50 μM for SIRT1, 3 and 5 are given as mean without standard deviations (n = 2)
The determination of inhibitory activity on the corresponding sirtuin enzymes was carried out based on a fluorescence-based assay commissioned by Reaction Biology Corporation (Malvern, USA) following an internal experimental protocol. Test substances were prepared in DMSO, delivered into the respective enzyme mixture (prepared with reaction buffer: Tris-HCl, pH = 8) and incubated for 10 minutes at 30 °C. Subsequently the substrate mixture (NAD^+ and a 7-amino-4-methylcoumarin-based fluorogenic peptide substrate) was added to initiate the deacetylation reaction. After 2 hours incubation at 30 °C, 2 mM nicotinamide (universal sirtuin inhibitor, to stop the reaction) and protease-based developer (to generate fluorescence by the cleavage of 7-amino-4-methylcoumarin) was added. At 30 °C 1 hour later, the respective fluorescence was measured (extinction/emission = 360 nm/460 nm). The inhibitory effect of the test compounds is indirectly proportional to the amount of converted fluorescent substrate standardized as 100% activity of the control without inhibitor. The test substances were tested in 10-dose IC50 triplicate mode, with 3-fold serial dilution starting at 50 μM final reaction concentration and if necessary, starting at 100 μM. For each serially diluted replicate of the triplicate, an IC50 value was determined by sigmoidal curve fitting, resulting in three IC50 values, from which the mean and corresponding standard deviation were subsequently calculated. Data processing was performed based on Prism 8.0.2 software (GraphPad Software, Boston, USA). Subtype selectivity on SIRT1, SIRT3 and SIRT5 was evaluated in a single dose duplicate mode at 50 μM final test compound concentration according to previous outlined internal protocol of Reaction Biology Corporation by determining the enzyme activity of the respective sirtuins in % (no inhibitor control as 100% activity).

ΔTm at 30 µM (SIRT2 [1]; read-out: ΔT, increase in the melting temperature of SIRT2): 6.5 °C | Fold increase in SIRT2 potency compared to lead structure (SIRT2 [2]; 29 vs 24a, 46 vs SirReal2): 3 fold | IC50 (SIRT2 [2]; fluorogenic peptide of p53 residues 379–382 (RHKK(Ac)-Fl), mean with standard deviation, n = 3): 26 ± 2 nM
Compound: Cc1cc(C)nc(SCC(=O)Nc2cccc(COc3ccc(NC(=O)c4cnn(C)c4)c(Cl)c3)c2)n1 [Compound 29, N-(2-Chloro-4-((3-(2-((4,6-dimethylpyrimidin-2-yl)thio)acetamido)benzyl)oxy)phenyl)-1-methyl-1H-pyrazole-4-carboxamide]
NAD+ dependency of inhibitor-induced SIRT2 melting temperature increase (SIRT2 [1]; presence and absence of 2.5 mM NAD+): increases the melting temperature of SIRT2 independently of NAD^+
